This note sets out measurements from ChEMBL document CHEMBL1122862, “Synthesis and antibacterial activity of 2,2'-dithiobis(benzamide) derivatives against Mycobacterium species” (1985).

Molecules are shown by their SMILES. In brackets after ≈: the same amount, converted by molar mass. Bounds are passed on as bounds.

Common to all, as to format: functional
Assay [1] has as its system Mycobacterium tuberculosis. The assay is described as follows: Tested for antibacterial activity against Mycobacterium tuberculosis H37Rv streptomycin resistant strain.
For assay [2], the system named is Mycobacterium tuberculosis. The assay is described as follows: Tested for antibacterial activity against Mycobacterium tuberculosis H37Rv kanamycin resistant strain.
Assay [3] deals with Mycobacterium tuberculosis. Briefly: Tested for antibacterial activity against Mycobacterium tuberculosis H37Rv isonicotinic acid hydrazide-resistant strain.

In the case of `O=C(NCC(O)c1ccc(O)c(O)c1)c1ccccc1SSc1ccccc1C(=O)NCC(O)c1ccc(O)c(O)c1` (configuration not stated), the results for the MIC in assay [1], in assay [2] and in assay [3] were greater than 100 µg/mL, 100 µg/mL (≈ 164 µM) and 100 µg/mL (≈ 164 µM), respectively.

As for `CCc1cc(CC)cc(NC(=O)c2ccccc2SSc2ccccc2C(=O)Nc2cc(CC)cc(CC)c2)c1`, the MIC in assay [1], in assay [2] and in assay [3] was greater than 100 µg/mL in each case.

Regarding `NNC(=O)c1ccncc1` [ISONIAZID], the MIC is 0.05 µg/mL (≈ 0.365 µM) in assay [1], 0.05 µg/mL (≈ 0.365 µM) in assay [2] and 100 µg/mL (≈ 729 µM) in assay [3].

Regarding `CCCCCC(=O)OCCCNC(=O)c1ccccc1SSc1ccccc1C(=O)NCCCOC(=O)CCCCC`, the MIC in assay [1], in assay [2] and in assay [3] was 3.13 µg/mL (≈ 5.07 µM) throughout.

As for `CCCCc1ccc(NC(=O)c2ccccc2SSc2ccccc2C(=O)Nc2ccc(CCCC)cc2)cc1`, the MIC in assay [1] came to 1.56 µg/mL (≈ 2.74 µM); in assay [2] it was 1.56 µg/mL (≈ 2.74 µM); in assay [3] it was 0.78 µg/mL (≈ 1.37 µM).

Regarding `O=C(NCc1cccc2ccccc12)c1ccccc1SSc1ccccc1C(=O)NCc1cccc2ccccc12`, the MIC in assay [1], in assay [2] and in assay [3] was greater than 100 µg/mL throughout.

On to `CCCCCCCC(=O)OCCCNC(=O)c1ccccc1SSc1ccccc1C(=O)NCCCOC(=O)CCCCCCC`, for which the MIC in assay [1] is 0.78 µg/mL (≈ 1.16 µM); in assay [2], 0.39 µg/mL (≈ 0.58 µM); in assay [3], 0.39 µg/mL (≈ 0.58 µM).

As to `CCCCC(CC)CNC(=O)c1ccccc1SSc1ccccc1C(=O)NCC(CC)CCCC` (configuration not stated), the MIC in assay [1], in assay [2] and in assay [3] was 1.56 µg/mL (≈ 2.95 µM) throughout.

Take `CCCCCCCCCCCCCCCCCCCC(=O)OCCCNC(=O)c1ccccc1SSc1ccccc1C(=O)NCCCOC(=O)CCCCCCCCCCCCCCCCCCC`: the MIC in assay [1], in assay [2] and in assay [3] was greater than 100 µg/mL each time.

Turning to `CC[C@@H](CO)NCCN[C@@H](CC)CO` [ETHAMBUTOL], the MIC stood at 0.78 µg/mL (≈ 3.82 µM) in assay [1], 1.56 µg/mL (≈ 7.64 µM) in assay [2] and 0.78 µg/mL (≈ 3.82 µM) in assay [3].

For the molecule `CCCCCCCCCCNC(=O)c1ccccc1SSc1ccccc1C(=O)NCCCCCCCCCC`, the MIC in assay [1] was determined as 3.13 µg/mL (≈ 5.35 µM); in assay [2], 6.25 µg/mL (≈ 10.7 µM); in assay [3] it was 3.13 µg/mL (≈ 5.35 µM).

Turning to `CC(O)CNC(=O)c1ccc(SSc2ccc(C(=O)NCC(C)O)cc2)cc1` (configuration not stated), the MIC in assay [1], in assay [2] and in assay [3] was greater than 100 µg/mL throughout.

For the molecule `O=C(Nc1ccc2ccccc2c1)c1ccccc1SSc1ccccc1C(=O)Nc1ccc2ccccc2c1`, the MIC in assay [1], in assay [2] and in assay [3] was 1.56 µg/mL (≈ 2.8 µM) throughout.

As for `CCC(O)CNC(=O)c1ccccc1SSc1ccccc1C(=O)NCC(O)CC` (configuration not stated), the MIC in assay [1], in assay [2] and in assay [3] was 12.5 µg/mL (≈ 27.9 µM) in each case.

Consider `CCC(CO)NC(=O)c1ccccc1SSc1ccccc1C(=O)NC(CC)CO` (configuration not stated), for which the MIC in assay [1], in assay [2] and in assay [3] was 12.5 µg/mL (≈ 27.9 µM) in each case.

Regarding `O=C(Nc1cc2ccccc2cc1O)c1ccccc1SSc1ccccc1C(=O)Nc1cc2ccccc2cc1O`, the MIC in assay [1] is 12.5 µg/mL (≈ 21.2 µM); in assay [2] it was 6.25 µg/mL (≈ 10.6 µM); in assay [3], 12.5 µg/mL (≈ 21.2 µM).

With `CCNC(=O)OCCNC(=O)c1ccccc1SSc1ccccc1C(=O)NCCOC(=O)NCC`, the MIC in assay [1], in assay [2] and in assay [3] was 25 µg/mL (≈ 46.8 µM) in each case.

Consider `CN1CCCN(C(=O)c2ccccc2SSc2ccccc2C(=O)N2CCCN(C)CC2)CC1`, for which the MIC in assay [1], in assay [2] and in assay [3] was greater than 100 µg/mL each time.

On to `CC(C)(CO)NC(=O)c1ccccc1SSc1ccccc1C(=O)NC(C)(C)CO`, for which the MIC in assay [1] was 12.5 µg/mL (≈ 27.9 µM); in assay [2] it was 12.5 µg/mL (≈ 27.9 µM); in assay [3], 6.25 µg/mL (≈ 13.9 µM).

For `O=c1c2ccccc2sn1CO`, the figures for the MIC in assay [1], in assay [2] and in assay [3] were 12.5 µg/mL (≈ 69 µM), 12.5 µg/mL (≈ 69 µM) and 6.25 µg/mL (≈ 34.5 µM), respectively.

In the case of `CCCCCCCCCC(=O)OCCCNC(=O)c1ccccc1SSc1ccccc1C(=O)NCCCOC(=O)CCCCCCCCC`, the MIC is 0.78 µg/mL (≈ 1.07 µM) in assay [1], 0.39 µg/mL (≈ 0.535 µM) in assay [2] and 0.39 µg/mL (≈ 0.535 µM) in assay [3].

Turning to `O=C(Nc1ccc(Cl)c2ccccc12)c1ccccc1SSc1ccccc1C(=O)Nc1ccc(Cl)c2ccccc12`, the MIC in assay [1], in assay [2] and in assay [3] was 12.5 µg/mL (≈ 20 µM) throughout.

For the molecule `CO[C@H]1/C=C/O[C@@]2(C)Oc3c(C)c(O)c4c(O)c(c(/C=N/N5CCN(C)CC5)c(O)c4c3C2=O)NC(=O)/C(C)=C\C=C\[C@H](C)[C@H](O)[C@@H](C)[C@@H](O)[C@@H](C)[C@H](OC(C)=O)[C@@H]1C` [RIFAMPIN], the results for the MIC in assay [1], in assay [2] and in assay [3] were 0.025 µg/mL (≈ 0.0304 µM), 0.05 µg/mL (≈ 0.0608 µM) and 0.025 µg/mL (≈ 0.0304 µM), respectively.

As for `NC[C@H]1O[C@H](O[C@H]2[C@H](O)[C@@H](O[C@H]3O[C@H](CO)[C@@H](O)[C@H](N)[C@H]3O)[C@H](N)C[C@@H]2N)[C@H](O)[C@@H](O)[C@@H]1O` [KANAMYCIN], the results for the MIC in assay [1], in assay [2] and in assay [3] were 6.25 µg/mL (≈ 12.9 µM), greater than 100 µg/mL and 6.25 µg/mL (≈ 12.9 µM), respectively.

The term MIC denotes the smallest concentration in the dilution series that meets the test's criterion for growth inhibition. Higher therefore signals a need for much substance.
